In patent US20260015337A1 (Trawsfynydd Therapeutics, Inc., priority 2022, published 2026) one finds IC50 data, which are given here for 22 compounds.

The target in the first test is 3CL Protease (Severe acute respiratory syndrome coronavirus 2, UniProt P0DTD1). Put plainly: 3CL Protease enzymatic activity assay (BPS Bioscience Assay Kit #78043-1, fluorescence). The test is classed as biochemical, SARS-CoV-2. The settings on record: Table A; 30 min preincubation, 40 μM substrate, 4 hours at room temperature; read-out: IC50, nM (3CL Protease enzymatic activity). The essentials: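 SARS-CoV-2 3CL protease was preincubated with compound 30 min at room temperature in assay buffer with 1 mM DTT (≤1% DMSO), then 40 μM substrate added for 4 h at room temperature. Fluorescence at 360/460 nm, blank-subtracted; IC50 from % inhibition, with GC376 as inhibitor control.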
On to `CC(C)(C)[C@H](NC(=O)C(F)(F)F)C(=O)N1C[C@H]2[C@@H]([C@H]1C(=O)N[C@H](C#N)Cc1cc3cc(F)c(F)cc3[nH]c1=O)C2(C)C` [Compound 177, (1R,2S,5S)—N—((S)-1-Cyano-2-(6,7-difluoro-2-oxo-1,2-dihydroquinolin-3-yl)ethyl)-3-((S)-3,3-dimethyl-2-(2,2,2-trifluoroacetamido)butanoyl)-6,6-dimethyl-3-azabicyclo[3.1.0]hexane-2-carboxamide], for which the IC50 was 50 to 100 nM. For `Cc1ccc2[nH]c(=O)c(C[C@@H](C#N)NC(=O)[C@@H]3[C@@H]4[C@H](CN3C(=O)[C@@H](NC(=O)C(F)(F)F)C(C)(C)C)C4(C)C)c(C)c2c1` [Compound 178, (1R,2S,5S)—N—((S)-1-Cyano-2-(4,6-dimethyl-2-oxo-1,2-dihydroquinolin-3-yl)-ethyl)-3-((S)-3,3-dimethyl-2-(2,2,2-trifluoroacetamido)butanoyl)-6,6-dimethyl-3-azabicyclo[3.1.0]hexane-2-carboxamide], the IC50 fell in the range of 100 to 250 nM.

On to `COc1cc2cc(C[C@@H](C#N)NC(=O)[C@@H]3[C@@H]4[C@H](CN3C(=O)[C@@H](NC(=O)C(F)(F)F)C(C)(C)C)C4(C)C)c(=O)[nH]c2cc1C` [Compound 179], for which the IC50 is 50 to 100 nM. The same measure, in the same setting: the figure for `CC(C)(C)[C@H](NC(=O)C(F)(F)F)C(=O)N1C[C@H]2[C@@H]([C@H]1C(=O)NC(C#N)Cc1cc3ccccc3[nH]c1=O)C2(C)C` (stereo partly drawn) [Compound 182, (1R,2S,5S)-N-[1-cyano-2-(2-oxo-1H-quinolin-3-yl)ethyl]-3-[(2S)-3,3-dimethyl-2-[(2,2,2-trifluoroacetyl)amino]butanoyl]-6,6-dimethyl-3-azabicyclo[3.1.0]hexane-2-carboxamide] is under 50 nM; for `Cc1ccc2[nH]c(=O)c(C[C@@H](C#N)N(C)C(=O)[C@@H]3[C@@H]4[C@H](CN3C(=O)[C@@H](NC(=O)C(F)(F)F)C(C)(C)C)C4(C)C)cc2c1` [Compound 183, (1R,2S,5S)-N-[(1S)-1-cyano-2-(6-methyl-2-oxo-1H-quinolin-3-yl)ethyl]-3-[(2S)-3,3-dimethyl-2-[(2,2,2-trifluoroacetyl)amino]butanoyl]-N,6,6-trimethyl-3-azabicyclo[3.1.0]hexane-2-carboxamide] it is at least 1000 nM. The same measure, in the same setting: with `CC(C)(C)[C@H](NC(=O)C(F)(F)F)C(=O)N1C[C@H]2[C@@H]([C@H]1C(=O)N[C@H](C#N)Cc1nc3ccccc3[nH]c1=O)C2(C)C` [Compound 185, (1R,2S,5S)—N-[(1S)-1-Cyano-2-(3-oxo-4H-quinoxalin-2-yl)ethyl]-3-[(2S)-3,3-dimethyl-2-[(2,2,2-trifluoroacetyl)amino]butanoyl]-6,6-dimethyl-3-azabicyclo[3.1.0]hexane-2-carboxamide] the figure was under 50 nM; with `CC(C)(C)[C@H](NC(=O)C(F)(F)F)C(=O)N1C[C@H]2[C@@H]([C@H]1C(=O)N[C@@H](C#N)Cc1nc3ccccc3[nH]c1=O)C2(C)C` [Compound 186, (1R,2S,5S)—N-[(1R)-1-cyano-2-(3-oxo-4H-quinoxalin-2-yl)ethyl]-3-[(2S)-3,3-dimethyl-2-[(2,2,2-trifluoroacetyl)amino]butanoyl]-6,6-dimethyl-3-azabicyclo[3.1.0]hexane-2-carboxamide], under 50 nM.

In the case of `CN1c2ccccc2NC(=O)C1CC(C#N)NC(=O)[C@@H]1[C@@H]2[C@H](CN1C(=O)[C@@H](NC(=O)C(F)(F)F)C(C)(C)C)C2(C)C` (stereo partly drawn) [Compound 187, (1R,2S,5S)—N-[1-Cyano-2-(1-methyl-3-oxo-2,4-dihydroquinoxalin-2-yl)ethyl]-3-[(2S)-3,3-dimethyl-2-[(2,2,2-trifluoroacetyl)amino]butanoyl]-6,6-dimethyl-3-azabicyclo[3.1.0]hexane-2-carboxamide], the IC50 was at least 1000 nM.

As to `CC(C)(C)[C@H](NS(C)(=O)=O)C(=O)N1C[C@H]2[C@@H]([C@H]1C(=O)N[C@H](C#N)Cc1cc3cnccc3[nH]c1=O)C2(C)C` [Compound 188, (1R,2S,5S)—N—((S)-1-Cyano-2-(2-oxo-1,2-dihydro-1,6-naphthyridin-3-yl)ethyl)-3-((S)-3,3-dimethyl-2-(methylsulfonamido)butanoyl)-6,6-dimethyl-3-azabicyclo[3.1.0]hexane-2-carboxamide], the IC50 was under 50 nM.

As to `CC(C)(C)[C@H](NS(C)(=O)=O)C(=O)N1C[C@H]2[C@@H]([C@H]1C(=O)N[C@@H](C#N)Cc1cc3cnccc3[nH]c1=O)C2(C)C` [Compound 189, (1R,2S,5S)—N—((R)-1-Cyano-2-(2-oxo-1,2-dihydro-1,6-naphthyridin-3-yl)ethyl)-3-((S)-3,3-dimethyl-2-(methylsulfonamido)butanoyl)-6,6-dimethyl-3-azabicyclo[3.1.0]hexane-2-carboxamide], the 50% inhibitory concentration (IC50) was at least 1000 nM.

Turning to `Cc1ccc2[nH]c(=O)c(C[C@@H](C#N)NC(=O)[C@@H]3[C@@H]4[C@H](CN3C(=O)Cc3cc(C(F)(F)F)n[nH]3)C4(C)C)cc2c1` [Compound 191, (1R,2S,5S)—N—((S)-1-Cyano-2-(6-methyl-2-oxo-1,2-dihydroquinolin-3-yl)ethyl)-6,6-dimethyl-3-(2-(3-(trifluoromethyl)-1H-pyrazol-5-yl)acetyl)-3-azabicyclo[3.1.0]hexane-2-carboxamide], the IC50 was at least 1000 nM. Still for that read-out and setting: with `Cc1ccc2[nH]c(=O)c(C[C@@H](C#N)NC(=O)[C@@H]3[C@@H]4[C@H](CN3C(=O)Cc3cc(C)no3)C4(C)C)cc2c1` [Compound 192, (1R,2S,5S)—N—((S)-1-Cyano-2-(6-methyl-2-oxo-1,2-dihydroquinolin-3-yl)ethyl)-6,6-dimethyl-3-(2-(3-methylisoxazol-5-yl)acetyl)-3-azabicyclo[3.1.0]hexane-2-carboxamide] the figure was at least 1000 nM; with `Cc1ccc2[nH]c(=O)c(C[C@@H](C#N)NC(=O)[C@@H]3[C@@H]4[C@H](CN3C(=O)Cc3cc(C(F)(F)F)no3)C4(C)C)cc2c1` [Compound 193, (1R,2S,5S)—N—((S)-1-Cyano-2-(6-methyl-2-oxo-1,2-dihydroquinolin-3-yl)ethyl)-6,6-dimethyl-3-(2-(3-(trifluoromethyl)isoxazol-5-yl)acetyl)-3-azabicyclo[3.1.0]hexane-2-carboxamide], at least 1000 nM; with `Cc1ccc2[nH]c(=O)c(C[C@@H](C#N)NC(=O)[C@@H]3[C@@H]4[C@H](CN3C(=O)C(C)c3cc(C(F)(F)F)n[nH]3)C4(C)C)cc2c1` (stereo partly shown) [Compound 194], at least 1000 nM. Turning to `Cc1ccc2[nH]c(=O)c(C[C@@H](C#N)NC(=O)[C@@H]3[C@@H]4[C@H](CN3C(=O)[C@@H](NS(=O)(=O)CC(F)(F)F)C(C)(C)C)C4(C)C)cc2c1` [Compound 195, (1R,2S,5S)—N—((S)-1-Cyano-2-(6-methyl-2-oxo-1,2-dihydroquinolin-3-yl)ethyl)-3-((S)-3,3-dimethyl-2-((2,2,2-trifluoroethyl)sulfonamido)butanoyl)-6,6-dimethyl-3-azabicyclo[3.1.0]hexane-2-carboxamide], the IC50 was under 50 nM.

For the compound `COc1cccc2oc(C(=O)N3C[C@H]4[C@@H]([C@H]3C(=O)N[C@H](C#N)Cc3cc5cc(C)ccc5[nH]c3=O)C4(C)C)cc12` [Compound 196, (1R,2S,5S)—N—((S)-1-Cyano-2-(6-methyl-2-oxo-1,2-dihydroquinolin-3-yl)ethyl)-3-(4-methoxybenzofuran-2-carbonyl)-6,6-dimethyl-3-azabicyclo[3.1.0]hexane-2-carboxamide], the IC50 is at least 1000 nM. Still for that read-out and setting: with `Cc1ccc2[nH]c(=O)c(C[C@@H](C#N)NC(=O)C3C[C@H]4OCC[C@H]4N3C(=O)[C@@H](NC(=O)OCc3ccccc3)C(C)(C)C)cc2c1` (stereo partly drawn) [Compound 197, Benzyl ((2S)-1-((3aR,6aR)-5-(((S)-1-cyano-2-(6-methyl-2-oxo-1,2-dihydroquinolin-3-yl)ethyl)carbamoyl)hexahydro-4H-furo[3,2-b]pyrrol-4-yl)-3,3-dimethyl-1-oxobutan-2-yl)carbamate] the figure was at least 1000 nM; with `Cc1ccc2[nH]c(=O)c(C[C@@H](C#N)NC(=O)C3C[C@H]4OCC[C@H]4N3C(=O)[C@@H](NC(=O)C(F)(F)F)C(C)(C)C)cc2c1` (stereo partly drawn) [Compound 198, (3aR,6aR)—N—((S)-1-Cyano-2-(6-methyl-2-oxo-1,2-dihydroquinolin-3-yl)ethyl)-4-((S)-3,3-dimethyl-2-(2,2,2-trifluoroacetamido)butanoyl)hexahydro-2H-furo[3,2-b]pyrrole-5-carboxamide], at least 1000 nM; with `Cc1ccc2c(c1)CC(CC(C#N)NC(=O)[C@@H]1[C@@H]3[C@H](CN1C(=O)[C@@H](NC(=O)C(F)(F)F)C(C)(C)C)C3(C)C)C(=O)N2` (stereo partly drawn) [Compound 199, (1R,2S,5S)—N-[1-Cyano-2-(6-methyl-2-oxo-3,4-dihydro-1H-quinolin-3-yl)ethyl]-3-[(2S)-3,3-dimethyl-2-[(2,2,2-trifluoroacetyl)amino]butanoyl]-6,6-dimethyl-3-azabicyclo[3.1.0]hexane-2-carboxamide], under 50 nM. On the same count and under the same terms, with `Cc1ccc2[nH]c(=O)c(CC(C#N)N(C)C(=O)[C@@H]3[C@H]4[C@H](CN3C(=O)[C@@H](NC(=O)C(F)(F)F)C(C)(C)C)C4(C)C)cc2c1` (stereo partly drawn) [Compound 205, (1S,2S,5S)-N-[1-cyano-2-(6-methyl-2-oxo-1H-quinolin-3-yl)ethyl]-3-[(2S)-3,3-dimethyl-2-[(2,2,2-trifluoroacetyl)amino]butanoyl]-N,6,6-trimethyl-3-azabicyclo[3.1.0]hexane-2-carboxamide] the figure was at least 1000 nM; with `Cc1ccc2[nH]c(=O)c(C[C@@H](C#N)NC(=O)[C@H](Cc3ccccc3)N(C)C(=O)[C@@H](NC(=O)C(F)(F)F)C(C)(C)C)cc2c1` [Compound 206, (2S)—N-[(1S)-1-benzyl-2-[[(1S)-1-cyano-2-(6-methyl-2-oxo-1H-quinolin-3-yl)ethyl]amino]-2-oxo-ethyl]-N,3,3-trimethyl-2-[(2,2,2-trifluoroacetyl)amino]butanamide], at least 1000 nM.

Still in this test, the particulars now being: Table B; comparison with known compound K; read-out: IC50, nM (3CL Protease enzymatic activity, comparative data).
With `CC(C)(C)[C@H](NC(=O)C(F)(F)F)C(=O)N1C[C@H]2[C@@H]([C@H]1C(=O)N[C@H](C#N)C[C@@H]1CCCNC1=O)C2(C)C` [K, reference compound], the IC50 worked out at 1290 nM.

As usually defined, the IC50 is the concentration that gives 50% inhibition.
